The test system of experiment [1] is phosphorylation of the IRF-3 protein in MDA-MB-468 cells. Briefly: pIRF3 immunocytochemistry cell based assay. As to conditions: Homo sapiens. In outline: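 After 2 h stimulation with Poly(I:C) (10 ug/ml), following 1 h compound pre-treatment (10-point, 3-fold dilution, top 10 uM), MDA-MB-468 cells were fixed and stained with anti-pIRF3 antibody. pIRF3 fluorescence was normalized to PI staining or cell count on an Acumen cytometer. IC50 curves were derived from this.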

Another experiment concerns the target T1, IKKε (Homo sapiens, UniProt Q14164).
T1 sequence (Q14164 1-716): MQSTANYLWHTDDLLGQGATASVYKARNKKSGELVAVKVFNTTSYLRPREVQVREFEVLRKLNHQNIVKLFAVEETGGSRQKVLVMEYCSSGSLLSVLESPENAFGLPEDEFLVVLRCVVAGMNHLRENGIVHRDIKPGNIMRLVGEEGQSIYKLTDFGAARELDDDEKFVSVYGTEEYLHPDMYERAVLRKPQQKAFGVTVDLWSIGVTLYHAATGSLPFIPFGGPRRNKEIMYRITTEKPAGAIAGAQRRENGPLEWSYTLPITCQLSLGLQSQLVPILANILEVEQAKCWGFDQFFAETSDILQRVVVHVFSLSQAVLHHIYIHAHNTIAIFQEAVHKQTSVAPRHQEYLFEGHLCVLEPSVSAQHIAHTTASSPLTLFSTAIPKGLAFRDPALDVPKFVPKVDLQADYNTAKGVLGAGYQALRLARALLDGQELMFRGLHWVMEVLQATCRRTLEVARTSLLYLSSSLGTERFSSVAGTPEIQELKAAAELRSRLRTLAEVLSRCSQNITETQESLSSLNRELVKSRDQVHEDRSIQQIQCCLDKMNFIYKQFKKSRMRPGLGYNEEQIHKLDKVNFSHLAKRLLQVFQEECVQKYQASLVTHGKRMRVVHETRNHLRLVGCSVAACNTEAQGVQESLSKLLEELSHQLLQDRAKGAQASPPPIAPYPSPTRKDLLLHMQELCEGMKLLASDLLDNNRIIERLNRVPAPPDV
Kind of experiment: IKKe Biochemical Assay. The settings on record: read-out: IKKε IC50. In outline:
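Activity was measured as mobility-shift separation of phosphorylated from unphosphorylated substrate on a LabChip EZ Reader. Compound was titrated from 30 uM final in 10 points, 1:4 steps, with 1% DMSO, and enzyme plus substrate reacted 90 min at 25° C before stop buffer. Control wells held 10 uM staurosporine.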

The next experiment addresses T2, TBK1 (Homo sapiens, UniProt Q9UHD2).
T2 sequence (Q9UHD2 1-729): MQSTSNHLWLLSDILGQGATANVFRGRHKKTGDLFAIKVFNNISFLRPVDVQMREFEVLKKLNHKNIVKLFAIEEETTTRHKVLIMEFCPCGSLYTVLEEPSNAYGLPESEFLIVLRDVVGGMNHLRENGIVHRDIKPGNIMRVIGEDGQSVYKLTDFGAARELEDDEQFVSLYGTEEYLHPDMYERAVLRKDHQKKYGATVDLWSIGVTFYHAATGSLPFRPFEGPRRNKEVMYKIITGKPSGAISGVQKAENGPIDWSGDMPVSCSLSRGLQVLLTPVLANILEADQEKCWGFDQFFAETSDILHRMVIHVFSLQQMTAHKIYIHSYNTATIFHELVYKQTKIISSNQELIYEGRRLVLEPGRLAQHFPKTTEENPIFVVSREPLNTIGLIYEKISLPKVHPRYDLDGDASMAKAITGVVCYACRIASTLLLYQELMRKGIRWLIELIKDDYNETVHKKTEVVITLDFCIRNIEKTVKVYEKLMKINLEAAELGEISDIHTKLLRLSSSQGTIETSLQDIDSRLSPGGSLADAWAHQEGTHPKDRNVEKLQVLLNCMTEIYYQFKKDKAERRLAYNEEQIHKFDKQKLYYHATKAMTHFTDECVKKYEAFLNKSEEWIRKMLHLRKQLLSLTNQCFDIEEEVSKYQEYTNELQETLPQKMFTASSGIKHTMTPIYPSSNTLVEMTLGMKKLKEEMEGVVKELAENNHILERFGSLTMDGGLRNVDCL
Briefly: TBK Biochemical Assay. As to conditions: read-out: TBK1 IC50. Summed up:
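Caliper LabChip mobility-shift readout of substrate and product after 90 min of TBK1 reaction at 25° C and stop-buffer addition. Compounds tested in 1:4 serial dilution over 10 points from 30 uM final at 1% DMSO; staurosporine 10 uM final defines full inhibition.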

[2] abbreviates: MDA-MB-468 cells, Poly(I:C) stimulation, read-out: pIRF3 IC50.

Counter-ions that a name gives are not always drawn. Like-named read-outs stand apart in the source and are kept apart here. Some results are limits rather than exact numbers.

Broadly, the IC50 is the concentration that inhibits the measured activity by half.

With `COc1cc(C(=O)N(C)C)ccc1-c1cc2nccc(-c3ccc(C4(N5CCOCC5)CC4)c(C#N)c3)c2o1` [Compound 292, 4-(7-[3-cyano-4-[1-(morpholin-4-yl)cyclopropyl]phenyl]furo[3,2-b]pyridin-2-yl)-3-methoxy-N,N-dimethylbenzamide hydrochloride], the IC50 (in experiment [1] (setting [2]); on IKKε; on TBK1) was 100 to 1000 nM throughout.

On to `CN(C)C(=O)c1cc(F)c(-c2cc3nccc(-c4ccc(NC5CCOCC5)c(C#N)c4)c3o2)c(F)c1` [Compound 295, 4-(7-[3-cyano-4-[(oxan-4-yl)amino]phenyl]furo[3,2-b]pyridin-2-yl)-3,5-difluoro-N,N-dimethylbenzamide hydrochloride], for which the IC50 in experiment [1] (setting [2]) is 1000 to 5000 nM; on IKKε, less than 100 nM; on TBK1, 100 to 1000 nM.

With `COc1cc(C(=O)N(C)CCO)ccc1-c1cc2ncc(F)c(-c3ccc(NC4CCOCC4)c(C#N)c3)c2o1` [Compound 296, 4-(7-[3-cyano-4-[(oxan-4-yl)amino]phenyl]-6-fluorofuro[3,2-b]pyridin-2-yl)-N-(2-hydroxyethyl)-3-methoxy-N-methylbenzamide], the IC50 in experiment [1] (setting [2]) is 100 to 1000 nM; at IKKε, less than 100 nM; at TBK1 it was less than 100 nM.

As for `COc1cc(C(=O)N(C)CCO)ccc1-c1cc2ncc(F)c(-c3ccc(OC4CCOCC4)c(C#N)c3)c2o1` [Compound 297, 4-[7-[3-cyano-4-(oxan-4-yloxy)phenyl]-6-fluorofuro[3,2-b]pyridin-2-yl]-N-(2-hydroxyethyl)-3-methoxy-N-methylbenzamide], the half-inhibitory concentration (IC50) is 100 to 1000 nM in experiment [1] (setting [2]), less than 100 nM at IKKε and less than 100 nM on TBK1.

Turning to `COc1cc(C(=O)N(C)C)ccc1-c1cc2ncc(F)c(-c3ccc(OC4CCOCC4)c(C#N)c3)c2o1` [Compound 298, 4-[7-[3-cyano-4-(oxan-4-yloxy)phenyl]-6-fluorofuro[3,2-b]pyridin-2-yl]-3-methoxy-N,N-dimethylbenzamide], the IC50 in experiment [1] (setting [2]) is 100 to 1000 nM; on IKKε it was less than 100 nM; at TBK1, less than 100 nM.

On to `COc1cc(C(=O)N(C)C)ccc1-c1cc2ncc(F)c(-c3ccc(NC4CCOCC4)c(C#N)c3)c2o1` [Compound 299, 4-(7-[3-cyano-4-[(oxan-4-yl)amino]phenyl]-6-fluorofuro[3,2-b]pyridin-2-yl)-3-methoxy-N,N-dimethylbenzamide], for which the IC50 is 100 to 1000 nM in experiment [1] (setting [2]), less than 100 nM at IKKε and less than 100 nM on TBK1.

Consider `CN(C)C(=O)c1ccc(-c2cc3ncc(F)c(-c4ccc(NC5CCOCC5)c(C#N)c4)c3o2)c(F)c1` [Compound 300, 4-(7-[3-cyano-4-[(oxan-4-yl)amino]phenyl]-6-fluorofuro[3,2-b]pyridin-2-yl)-3-fluoro-N,N-dimethylbenzamide], for which the 50% inhibitory concentration (IC50) in experiment [1] (setting [2]) was 1000 to 5000 nM; at IKKε it was 100 to 1000 nM; at TBK1 it was 100 to 1000 nM.

For the compound `CN(C)C(=O)c1ccc(-c2cc3ncc(F)c(-c4ccc(OC5CCOCC5)c(C#N)c4)c3o2)c(F)c1` [Compound 301, 4-[7-[3-cyano-4-(oxan-4-yloxy)phenyl]-6-fluorofuro[3,2-b]pyridin-2-yl]-3-fluoro-N,N-dimethylbenzamide], the IC50 in experiment [1] (setting [2]) is 1000 to 5000 nM; on IKKε, less than 100 nM; on TBK1, less than 100 nM.

As to `CN(CCO)C(=O)c1ccc(-c2cc3ncc(F)c(-c4ccc(OC5CCOCC5)c(C#N)c4)c3o2)c(F)c1` [Compound 302, 4-[7-[3-cyano-4-(oxan-4-yloxy)phenyl]-6-fluorofuro[3,2-b]pyridin-2-yl]-3-fluoro-N-(2-hydroxyethyl)-N-methylbenzamide], the results for the IC50 (in experiment [1] (setting [2]); on IKKε; on TBK1) were 100 to 1000 nM, less than 100 nM and less than 100 nM, respectively.

Take `CN(CCO)C(=O)c1ccc(-c2cc3ncc(F)c(-c4ccc(NC5CCOCC5)c(C#N)c4)c3o2)c(F)c1` [Compound 303, 4-(7-[3-cyano-4-[(oxan-4-yl)amino]phenyl]-6-fluorofuro[3,2-b]pyridin-2-yl)-3-fluoro-N-(2-hydroxyethyl)-N-methylbenzamide]: the IC50 (in experiment [1] (setting [2]); at IKKε; on TBK1) was 100 to 1000 nM each time.

With `COc1cc(C(=O)N(C)CCO)ccc1-c1cc2ncc(Cl)c(-c3ccc(OC4CCOCC4)c(C#N)c3)c2o1` [Compound 304, 4-[6-chloro-7-[3-cyano-4-(oxan-4-yloxy)phenyl]furo[3,2-b]pyridin-2-yl]-N-(2-hydroxyethyl)-3-methoxy-N-methylbenzamide], the results for the half-maximal inhibitory concentration (IC50) (in experiment [1] (setting [2]); at IKKε; at TBK1) were 1000 to 5000 nM, 100 to 1000 nM and 100 to 1000 nM, respectively.

On to `COc1nc(C(=O)N(C)C)ccc1-c1cc2nccc(-c3ccc(N4CC[C@@H](F)C4)c(C#N)c3)c2o1` [Compound 313, 5-{7-[3-Cyano-4-((R)-3-fluoro-pyrrolidin-1-yl)-phenyl]-furo[3,2-b]pyridin-2-yl}-6-methoxy-pyridine-2-carboxylic acid dimethylamide], for which the IC50 was 100 to 1000 nM in experiment [1] (setting [2]), less than 100 nM at IKKε and less than 100 nM on TBK1.

With `COc1nc(C(=O)N(C)C)ccc1-c1cc2nccc(-c3ccc(N4CC[C@H](F)C4)c(C#N)c3)c2o1` [Compound 314, 5-{7-[3-Cyano-4-((S)-3-fluoro-pyrrolidin-1-yl)-phenyl]-furo[3,2-b]pyridin-2-yl}-6-methoxy-pyridine-2-carboxylic acid dimethylamide], the IC50 in experiment [1] (setting [2]) is 100 to 1000 nM; at IKKε it was less than 100 nM; at TBK1, less than 100 nM.

In the case of `COc1cc(C(=O)N(C)C)cnc1-c1cc2nccc(-c3ccc(NC4CCOCC4)c(C#N)n3)c2o1` [Compound 315, 6-(7-[6-cyano-5-[(oxan-4-yl)amino]pyridin-2-yl]furo[3,2-b]pyridin-2-yl)-5-methoxy-N,N-dimethylpyridine-3-carboxamide hydrochloride], the IC50 in experiment [1] (MDA-MB-468, read-out: pIRF3 IC50) was 100 to 1000 nM; on IKKε, less than 100 nM; at TBK1 it was less than 100 nM.

As for `COc1cc(C(=O)N(C)C)cnc1-c1cc2nccc(-c3ccc(OC4CCOCC4)c(C#N)n3)c2o1` [Compound 316, 6-[7-[6-cyano-5-(oxan-4-yloxy)pyridin-2-yl]furo[3,2-b]pyridin-2-yl]-5-methoxy-N,N-dimethylpyridine-3-carboxamide], the figures for the IC50 (in experiment [1] (setting [2]); at IKKε; on TBK1) were 100 to 1000 nM, less than 100 nM and less than 100 nM, respectively.

Regarding `COc1cc(C(=O)N(C)C)cnc1-c1cc2ncc(F)c(-c3ccc(OC4CCOCC4)c(C#N)c3)c2o1` [Compound 317, 6-(7-(3-cyano-4-(tetrahydro-2H-pyran-4-yloxy)phenyl)-6-fluorofuro[3,2-b]pyridin-2-yl)-5-methoxy-N,N-dimethylnicotinamide], the IC50 is 100 to 1000 nM in experiment [1] (setting [2]), less than 100 nM at IKKε and less than 100 nM on TBK1.

Turning to `COc1cc(C(=O)N(C)CCO)cnc1-c1cc2nccc(-c3ccc(NC4CCOCC4)c(C#N)c3)c2o1` [Compound 318, 6-(7-(3-cyano-4-(tetrahydro-2H-pyran-4-ylamino)phenyl)furo[3,2-b]pyridin-2-yl)-N-(2-hydroxyethyl)-5-methoxy-N-methylnicotinamide], the IC50 was 100 to 1000 nM in experiment [1] (setting [2]), less than 100 nM on IKKε and less than 100 nM at TBK1.

(Values after patent publication US10428080B2, “TBK/IKK inhibitor compounds and uses thereof” (Merck Patent GmbH, priority 2015, dated 2019).)
